Source: patent publication US20110033393A1, “Hydrazone Compounds and Their Use” (priority 2009, published 2011)

Columns and labels:
[1] = target: T1, human TRPM5 ion channel (Homo sapiens, UniProt Q9NZQ8); assay: FLIPR-based assay for membrane potential and calcium mobilization (TRPM5 inhibiting activity); format: cell-based; details: live cells, 30° C., read-out: hTrpM5 IC50
T1 sequence (Q9NZQ8 1-1165): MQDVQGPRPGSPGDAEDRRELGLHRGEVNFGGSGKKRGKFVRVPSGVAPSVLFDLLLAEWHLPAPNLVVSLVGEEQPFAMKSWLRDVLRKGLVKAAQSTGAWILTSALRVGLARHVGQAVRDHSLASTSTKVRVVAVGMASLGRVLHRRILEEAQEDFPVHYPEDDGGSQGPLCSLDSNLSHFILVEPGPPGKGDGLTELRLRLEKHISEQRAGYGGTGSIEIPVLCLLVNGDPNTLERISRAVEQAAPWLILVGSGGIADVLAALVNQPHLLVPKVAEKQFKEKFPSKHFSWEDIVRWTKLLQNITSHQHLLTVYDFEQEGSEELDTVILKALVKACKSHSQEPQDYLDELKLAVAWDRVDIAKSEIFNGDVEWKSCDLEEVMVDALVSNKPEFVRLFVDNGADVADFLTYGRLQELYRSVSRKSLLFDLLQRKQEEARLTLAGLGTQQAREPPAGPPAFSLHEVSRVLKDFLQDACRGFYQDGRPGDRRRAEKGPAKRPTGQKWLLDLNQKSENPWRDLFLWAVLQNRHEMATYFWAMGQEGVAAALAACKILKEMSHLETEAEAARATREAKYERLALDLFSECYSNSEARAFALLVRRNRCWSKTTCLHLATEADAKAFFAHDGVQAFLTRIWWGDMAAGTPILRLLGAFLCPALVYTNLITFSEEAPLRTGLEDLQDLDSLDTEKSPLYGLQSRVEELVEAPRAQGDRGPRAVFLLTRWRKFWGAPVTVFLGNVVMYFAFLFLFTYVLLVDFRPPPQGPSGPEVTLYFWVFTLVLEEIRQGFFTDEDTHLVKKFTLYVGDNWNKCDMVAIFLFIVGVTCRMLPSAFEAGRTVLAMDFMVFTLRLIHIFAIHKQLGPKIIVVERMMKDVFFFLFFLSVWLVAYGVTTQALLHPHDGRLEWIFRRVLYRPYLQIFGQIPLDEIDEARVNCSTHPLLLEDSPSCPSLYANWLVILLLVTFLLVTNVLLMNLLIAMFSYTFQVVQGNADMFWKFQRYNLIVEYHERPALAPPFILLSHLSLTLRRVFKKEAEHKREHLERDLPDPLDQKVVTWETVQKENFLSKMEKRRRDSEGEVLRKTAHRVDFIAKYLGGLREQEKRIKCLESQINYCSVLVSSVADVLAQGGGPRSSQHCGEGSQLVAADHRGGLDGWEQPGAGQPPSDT
Procedure, shortened: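 Live cells expressing human TRPM5, assayed at 30 °C by FLIPR readout of membrane potential and calcium mobilization. Ten serial 2- or 3-fold dilutions from no more than 100 μM. IC50 derived by curve fitting of concentration-effect data.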

[2] = tested on: Beta-TC-6 cells; assay: Insulin release enhancement in insulinoma cell line Beta-TC-6 (Assay 1); format: cell-based, mouse
Protocol: Assay I: Insulin release enhancement by TRPM5 inhibitors was tested by the following procedure. Beta-TC-6 cells are an insulin-secreting cell line derived from transgenic mice expressing the large T-antigen of simian virus 40 (SV40) in pancreatic beta-cells as described by Poitout et al., Diabetes, 44:306-313 (1995). The cell line was obtained from ATCC cell bank CAT# CRL-11506 and grown in Dulbecco's Modified Eagle's Medium (DMEM) with 15% fetal bovine serum (FBS), 4 mM glutamine, 4.5 g/L glucose, 110 mg/L sodium pyruvate and 1× penn/strep antibiotic mix in a 37° C. incubator with 5% CO2. Cultures were routinely split 1:2 twice a week with the aid of trypsin.
The day before the assay 0.15×10^6 Beta-TC-6 cells were plated into each well of 96 well plates (Greiner bio-one V-bottom, Cat#: 651 180). The cells were spun at 1200 rpm for 5 min and cultured overnight. […] Insulin release in the supernatant was assessed using a commercially available ELISA kit (Mercodia Cat#: 10-1149-10) according to the manufacturer's protocol. The data were expressed as pg of insulin per number of cells. […]

IC50 [1]: 420 nM
Structure (SMILES): Cc1cc(/C=N/NC(=O)C2CC2c2ccccc2)cc2cccnc12 (racemic) [Example 10, trans-N′-((8-Methylquinolin-6-yl)methylene)-2-phenylcyclopropanecarbohydrazide]
insulin secretion ([2]; Beta-TC-6, in the presence of 0.3 mM glucose): does not occur | insulin secretion ([2]; Beta-TC-6, in the presence of 1 mM glucose): dose-dependent increase of insulin secretion
